Among the data in PubChem BioAssay AID463203 (Broad Institute, 2010) are AC50 values, retold here.

Calls of active or inactive are those of the source.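 The calls were made as follows: active = more than half of replicate measurements showing over 20% loss of kinase signal relative to plate controls; inconclusive = some but at most half of replicates over 20% loss; inactive = no replicate over 20% signal loss.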

Broadly, the AC50 is the midpoint of the concentration-response curve, whichever way the signal moves.

Sequence of Glycogen synthase kinase-3 alpha (Homo sapiens) (P49840 whole entry, looked up): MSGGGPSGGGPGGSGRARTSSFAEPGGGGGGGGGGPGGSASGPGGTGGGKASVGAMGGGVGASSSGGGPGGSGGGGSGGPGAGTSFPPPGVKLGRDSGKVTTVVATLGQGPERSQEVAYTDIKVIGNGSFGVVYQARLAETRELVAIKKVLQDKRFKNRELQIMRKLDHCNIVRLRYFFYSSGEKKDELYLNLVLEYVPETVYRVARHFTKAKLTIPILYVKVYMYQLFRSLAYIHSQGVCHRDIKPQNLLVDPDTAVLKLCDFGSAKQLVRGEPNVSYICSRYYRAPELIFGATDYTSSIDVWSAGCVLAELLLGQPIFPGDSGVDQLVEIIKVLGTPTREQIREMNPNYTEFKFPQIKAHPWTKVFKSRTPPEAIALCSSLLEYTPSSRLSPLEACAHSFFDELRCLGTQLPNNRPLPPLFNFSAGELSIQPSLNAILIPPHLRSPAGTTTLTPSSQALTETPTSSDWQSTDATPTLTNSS

The experiment has as its target Glycogen synthase kinase-3 alpha (Homo sapiens) (UniProt P49840). In words: concentration-response blocking of human GSK3A – biochemical, luminescence, cell-free homogeneous, retest, dose response (AID 463203). The conditions noted are these: GSK-3 alpha enzyme, ADP-Glo luminescence, 60 min. For orientation: ADP-Glo first removes unused ATP, then detects ADP through luciferase.
Turning to `CC1(C)CC(=O)C(C(C2=C(O)CC(C)(C)CC2=O)c2cccc(O)c2)C(=O)C1` (stereo unspecified), the AC50 was > 30 µM (inactive).

For the molecule `CCOc1cc(/C=C2\SC(N3CCCC(C)C3)=NC2=O)ccc1O` (stereo unspecified), the AC50 was 8.87 µM.

For the molecule `CCOC(=O)c1c(NC(=O)CSc2nnc(CNc3ccc(C)cc3C)o2)sc(C)c1C`, the AC50 is > 30 µM (inactive).

For the molecule `CCCN(CCC)Cc1c(C(=O)N/N=C/C(C)=C\c2ccco2)nnn1-c1nonc1N`, the AC50 was > 30 µM (inactive).

With `Cc1ccc(-n2nnnc2SCc2nnc(-c3ccccc3Br)o2)cc1`, the AC50 is > 30 µM (inactive).

Turning to `COc1ccc(OCC(=O)N/N=C/c2ccc(N(C)C)cc2)cc1`, the AC50 is > 30 µM (inactive).

Regarding `N#Cc1cc(Cl)c(NCC2CCCO2)cc1C#N` (stereo unspecified), the AC50 is > 30 µM (inactive).

Regarding `Cc1ccc(-c2cn3cccnc3n2)cc1NC(=O)c1ccc(Br)o1`, the AC50 is > 30 µM (inactive).

Regarding `CCOc1ccc(-n2c(SCC(=O)Nc3ccccc3C)n[nH]c2=O)cc1`, the AC50 was > 30 µM (inactive).

Regarding `Cc1onc(-c2ccccc2Cl)c1C(=O)Nc1cccc(-c2cn3cccnc3n2)c1`, the AC50 was > 30 µM (inactive).

As for `CC(C)(C)OC(=O)N1CCC(NC(=O)c2[nH]cnc2C(=O)Nc2ccc(Cl)cc2)CC1`, the AC50 is > 30 µM (inactive).

Regarding `CC(=O)Nc1cccc(-c2csc(Nc3ccc(C)cn3)n2)c1`, the AC50 was > 30 µM (inactive).

For `COc1ccc(C(=O)NNC(=O)c2ccccn2)cc1`, the AC50 is 11.8 µM.

In the case of `Cc1ccc(OCC(=O)NNC(=O)C(C)Sc2ncnc3sc(C)c(C)c23)cc1` (stereo unspecified), the AC50 is > 30 µM (inactive).

Consider `COc1ccc(-n2c(O)c(C=NCc3ccc4c(c3)OCO4)c(=O)[nH]c2=O)cc1`, for which the AC50 was > 30 µM (inactive).

`O=c1[nH]c(=O)n(C2CCCCC2)c(O)c1C=NCCCn1ccnc1`: the AC50 was 4.06 µM.

Take `CCOC(=O)c1nnn(-c2nonc2N)c1COc1ccc(F)cc1`: the AC50 was 4.9 µM.

For the molecule `CC(=S)/C=C1\Sc2ccccc2N1C`, the AC50 was > 30 µM (inactive).

Regarding `C[C@H]1CCCC(=O)CCCCCc2cc(O)cc(O)c2C(=O)O1`, the AC50 was 28.3 µM.

In the case of `COc1ccc(-c2nc(N)ncc2-c2ccccc2)c(O)c1`, the concentration at half-maximal activity (AC50) is 15.5 µM.

In the case of `COc1ccccc1NC(=O)Nc1ccccc1Br`, the AC50 was > 30 µM (inactive).

Turning to `Cc1c(C(=O)N2CCN(c3ccccc3)CC2)oc2c(Cl)cccc12`, the AC50 is > 30 µM (inactive).

On to `C/C(=N\NC(=O)CSc1nc(C)[nH]c1[N+](=O)[O-])c1ccc(F)cc1`, for which the AC50 is > 30 µM (inactive).

As to `COc1ccc(OC)c(C2CC(=O)N3CN(c4ccccc4)CSC3=C2C#N)c1` (stereo unspecified), the AC50 is > 30 µM (inactive).

As to `COc1ccc(Br)cc1C1CC(=O)N2CN(Cc3ccccc3)CSC2=C1C#N` (stereo unspecified), the AC50 is > 30 µM (inactive).

On to `Cc1ccc(/C=N/NC(=O)c2nnn(-c3nonc3N)c2CN(C)C)s1`, for which the AC50 was > 30 µM (inactive).

Regarding `C/C(=N\NC(=O)c1ccccc1NC(=O)c1ccc(Cl)cc1)c1ccncc1`, the AC50 is 12.6 µM.

Turning to `c1ccc2[nH]c(-c3ccncc3)nc2c1`, the AC50 was > 30 µM (inactive).

Regarding `CN(c1ccccc1)c1nc(-n2ccnc2)nc(-n2ccnc2)n1`, the AC50 is 29.3 µM.

For `O=C(Nc1cccnc1)c1scc2c1OCCO2`, the AC50 is 23.5 µM.

For `COc1cc(/C=N/NC(=O)c2ccoc2C)ccc1O`, the AC50 was > 30 µM (inactive).

For `O=C(Nc1ccccc1)c1cc(-n2cnnc2)ccc1Cl`, the AC50 is > 30 µM (inactive).

`Cc1cc(=O)[nH]c2c(C)c(N)ccc12`: the AC50 was > 30 µM (inactive).

Take `CC(=O)c1cccc(NC(=O)c2cc(-n3cnnc3)ccc2Cl)c1`: the AC50 is > 30 µM (inactive).

As for `CC(C)NC(=O)Nc1cccc(Cl)c1`, the AC50 was > 30 µM (inactive).

For `CC(OC(=O)Cc1c[nH]c2ccccc12)C(=O)c1ccccc1` (stereo unspecified), the AC50 was > 30 µM (inactive).

As to `COCC(=O)Nc1ccc([N+](=O)[O-])cc1OC`, the AC50 is > 30 µM (inactive).

With `COc1ccc(Nc2nc(N)nc(COc3ccc(OC)cc3)n2)cc1`, the AC50 is > 30 µM (inactive).

For the molecule `COc1cccc(/C=C2\SC(=O)NC2=O)c1OCc1ccc(C(=O)O)cc1`, the AC50 was 26.9 µM.

`CC(=NCCCn1ccnc1)c1c(O)n(C)c(=O)n(C)c1=O`: the AC50 is > 30 µM (inactive).

`CCOC(=O)c1nc(NCc2cccc(OC)c2)c2ccccc2n1`: the AC50 is > 30 µM (inactive).

Turning to `COc1ccc(NC(=O)c2ccc(NCCCN3CCOCC3)c([N+](=O)[O-])c2)cc1`, the AC50 was > 30 µM (inactive).

On to `CCCc1c(C(=O)N/N=C/c2cccnc2)nnn1-c1nonc1N`, for which the AC50 is > 30 µM (inactive).

Take `O=C(NC(=S)Nc1cccc2c(O)cccc12)c1ccccc1[N+](=O)[O-]`: the AC50 is > 30 µM (inactive).

Consider `CCN(C(=O)CN1CCCCC1)c1c(N)n(Cc2ccccc2)c(=O)[nH]c1=O`, for which the AC50 was > 30 µM (inactive).

With `Cc1cc(C(C#N)c2cccc(Cl)c2)n2ncnc2n1` (stereo unspecified), the AC50 is 5.78 µM.

Consider `S=C(Nc1cccnc1)Nc1cccc2cnccc12`, for which the AC50 was > 30 µM (inactive).

Regarding `C/C(=N\NC(=O)c1nnn(-c2nonc2N)c1-c1cccs1)c1cccc(O)c1`, the AC50 was 1.42 µM.

Consider `O=C(O)Cn1cc(/C=N/NC(=O)c2cc3cc(Br)ccc3o2)c2ccccc21`, for which the AC50 is 6.05 µM.

`Cc1ccc(/C=N/NC(=O)c2nnn(-c3nonc3N)c2CN(C)C2CCCCC2)cc1`: the AC50 is > 30 µM (inactive).

Consider `COc1cc(CN2CCN(Cc3ccc(C)cc3)CC2)c([N+](=O)[O-])cc1OC`, for which the AC50 was > 30 µM (inactive).
